Here are results for twelve molecules from patent US9388148B2, “Acylaminocycloalkyl compounds suitable for treating disorders that respond to modulation of dopamine D3 receptor” (AbbVie Deutschland GmbH & Co. KG, priority 2013, dated 2016).

For data set [1], the target named is T1, human dopamine D3 receptors (Homo sapiens, UniProt P35462).
T1 construct: expressed in transfected cells; host or cells: HEK-293
Put plainly: Dopamine D3 receptor binding ([125I]-iodosulpride displacement). As to conditions: membranes of HEK-293 cells with human D3 receptors, 0.1 nM [125I]-iodosulpride. The protocol: (§1) The substance to be tested was either dissolved in methanol/Chremophor® (BASF SE) or in dimethyl sulfoxide and then diluted with water to the desired concentration.
(§2) Each assay mixture was run in triplicate. • The incubation buffer contained 50 mM tris, 120 mM NaCl, 5 mM KCl, 2 mM CaCl2, 2 mM MgCl2 and 0.1% bovine serum albumin, 10 μM quinolone and 0.1% ascorbic acid (prepared fresh daily). […] Each assay mixture was run in triplicate. • The incubation buffer contained 50 mM tris, 120 mM NaCl, 5 mM KCl, 2 mM CaCl2, 2 mM MgCl2 and 0.1% bovine serum albumin. The buffer was adjusted to pH 7.4 with HCl. c) Measurement and analysis: • After having been incubated at 25° C. for 60 minutes, the assay mixtures were filtered through a Whatman GF/B glass fiber filter under vacuum using a cell col-lecting device. The filters were transferred to scintillation viols using a filter transfer system. After 4 ml of Ultima Gold® (Packard) have been added, the samples were shaken for one hour and the radioactivity was then counted in a Beta-Counter (Packard, Tricarb 2000 or 2200CA).

The target of data set [2] is T2, human dopamine D2L receptors (long isoform) (Homo sapiens, UniProt P14416).
T2 construct: expressed in transfected cells; host or cells: HEK-293
Put plainly: Dopamine D2L receptor binding ([125I]iodospiperone displacement). The following applies: selectivity ratio, human D2L vs human D3 binding. The protocol:
as §1, §2

Data set [3] can be described thus: Determination of the microsomal half-life / microsomal clearance. In kind it is in vitro ADME. The following applies: pH 7.4; human liver microsomes, 0.5 μM test substance, 0.25 mg protein/ml, NADPH, 37° C.; read-out: Human mCl (mikrosomal clearance). The protocol:
The metabolic stability of the compounds of the invention was determined in the following assay.
The test substances were incubated in a concentration of 0.5 μM as follows:
0.5 μM test substance are preincubated together with liver microsomes from different species (from rat, human or other species) (0.25 mg of microsomal protein/ml) in 0.05 M potassium phosphate buffer of pH 7.4 in microtiter plates at 37° C. for 5 min. The reaction is started by adding NADPH (1 mg/mL). After 0, 5, 10, 15, 20 and 30 min, 50 μl aliquots are removed, and the reaction is immediately stopped and cooled with the same volume of acetonitrile. The samples are frozen until analyzed. The remaining concentration of undegraded test substance is determined by MSMS. The half-life (T1/2) is determined from the gradient of the signal of test substance/unit time plot, it being possible to calculate the half-life of the test substance, assuming first order kinetics, from the decrease in the concentration of the compound with time. The microsomal clearance (mC1) is calculated from mC1=1n2/T1/2/(content of microsomal protein in mg/ml)×1000 [ml/min/mg] (modified from references: Di, The Society for Biomoleculur Screening, 2003, 453-462; Obach, DMD, 1999 vol 27. N 11, 1350-1359).
(Microsomes from liver hold many membrane-bound enzymes, among them those of drug oxidation.)

By Ki is commonly meant the equilibrium dissociation constant of an inhibitor or competing ligand from its target.

T2 sequence (P14416 whole entry, canonical isoform): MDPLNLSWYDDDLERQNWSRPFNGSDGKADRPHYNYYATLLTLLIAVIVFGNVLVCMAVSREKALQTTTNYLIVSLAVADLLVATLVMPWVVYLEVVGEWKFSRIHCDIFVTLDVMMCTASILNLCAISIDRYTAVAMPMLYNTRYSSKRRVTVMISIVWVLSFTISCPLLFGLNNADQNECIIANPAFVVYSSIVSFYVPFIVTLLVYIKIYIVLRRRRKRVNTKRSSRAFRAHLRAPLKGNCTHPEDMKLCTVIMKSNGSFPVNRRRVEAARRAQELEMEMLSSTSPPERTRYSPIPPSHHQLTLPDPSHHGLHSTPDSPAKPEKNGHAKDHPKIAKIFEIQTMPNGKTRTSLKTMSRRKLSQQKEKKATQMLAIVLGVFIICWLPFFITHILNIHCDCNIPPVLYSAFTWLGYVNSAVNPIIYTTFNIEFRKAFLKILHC
T1 sequence (P35462 whole entry): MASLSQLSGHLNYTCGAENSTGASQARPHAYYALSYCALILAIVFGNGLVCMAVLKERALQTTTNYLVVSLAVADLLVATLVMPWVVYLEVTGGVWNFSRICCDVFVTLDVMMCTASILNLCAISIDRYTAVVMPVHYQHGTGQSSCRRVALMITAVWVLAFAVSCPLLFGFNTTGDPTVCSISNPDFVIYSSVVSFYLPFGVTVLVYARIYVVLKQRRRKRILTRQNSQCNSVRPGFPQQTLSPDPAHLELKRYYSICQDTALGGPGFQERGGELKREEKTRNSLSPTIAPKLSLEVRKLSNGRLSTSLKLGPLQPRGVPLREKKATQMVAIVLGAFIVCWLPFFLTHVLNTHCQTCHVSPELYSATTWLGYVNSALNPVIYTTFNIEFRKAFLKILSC

With `CC(C)c1cc(N2CCN(CC[C@H]3CC[C@H](NC(=O)[C@H]4CC[C@H](O)CC4)CC3)C[C@@H]2C)nc(C(C)(C)C)n1` [Compound 41, Trans-N-[4-[2-[(3S)-4-(2-tert-butyl-6-isopropyl-pyrimidin-4-yl)-3-methyl-piperazin-1-yl]ethyl]cyclohexyl]-trans-4-hydroxy-cyclohexanecarboxamide], the Ki in data set [1] is below 10 nM. In addition, the “D2/D3, Ki (D2L)/Ki (D3)” value in data set [2] is “+++ (+++ >50)”.
The matching figures for `CC(C)c1cc(N2CCN(CCC3CC(NC(=O)[C@H]4CC[C@H](O)CC4)C3)C[C@@H]2C)nc(C(C)(C)C)n1` (stereo partly drawn) [Compound 42, N-[3-[2-[(3S)-4-(2-tert-butyl-6-isopropyl-pyrimidin-4-yl)-3-methyl-piperazin-1-yl]ethyl]cyclobutyl]-trans-4-hydroxy-cyclohexanecarboxamide]: below 10 nM and “+++ (+++ >50)”.
In the same order, the values of `C[C@H]1CN(CC[C@H]2CC[C@@H](NC(=O)[C@H]3CC[C@H](O)CC3)CC2)CCN1c1cc(C(F)F)nc(C(C)(C)C)n1` [Compound 44, Cis-N-[4-[2-[(3S)-4-[2-tert-butyl-6-(difluoromethyl)pyrimidin-4-yl]-3-methyl-piperazin-1-yl]ethyl]cyclohexyl]-trans-4-hydroxy-cyclohexanecarboxamide] are below 10 nM and “+++ (+++ >50)”.
The matching figures for `CC(C)c1cc(N2CCN(CCC3CCC(NC(=O)[C@H]4C[C@H](O)C4)CC3)CC2)nc(C(C)(C)C)n1` (relative stereo) [Compound 50, Trans-N-[4-[2-[4-(2-tert-butyl-6-isopropyl-pyrimidin-4-yl)-piperazin-1-yl]ethyl]cyclohexyl]-3-hydroxy-cyclobutanecarboxamide]: below 10 nM and “+++ (+++ >50)”.
As to `CC(C)c1cc(N2CCN(CCC3CCC(NC(=O)[C@H]4C[C@H](O)C4)CC3)C[C@@H]2C)nc(C(C)(C)C)n1` (stereo partly drawn) [Compound 48, Trans-N-[4-[2-[(3S)-4-(2-tert-butyl-6-isopropyl-pyrimidin-4-yl)-3-methyl-piperazin-1-yl]ethyl]cyclohexyl]-3-hydroxycyclobutanecarboxamide], in data set [1], the Ki was below 10 nM. Besides, the “D2/D3, Ki (D2L)/Ki (D3)” value in data set [2] is “+++ (+++ >50)”.
On to `CC(C)c1cc(N2CCN(CC[C@H]3CC[C@@H](NC(=O)[C@H]4CC[C@H](O)CC4)CC3)CC2)nc(C(C)(C)C)n1` [Compound 43, Cis-N-[4-[2-[4-(2 tert-butyl-6-isopropyl-pyrimidin-4-yl)piperazin-1-yl]ethyl]cyclohexyl]-trans-4-hydroxy-cyclohexanecarboxamide], for which the Ki in data set [1] was below 10 nM. Besides, in data set [2], the “D2/D3, Ki (D2L)/Ki (D3)” value is reported as “+++ (+++ >50)”.
The molecule `CO[C@H]1C[C@H](C(=O)NC2CCC(CCN3CCN(c4cc(C(C)C)nc(C(C)(C)C)n4)CC3)CC2)C1` (relative stereo) [Compound 49, Trans-N-[4-[2-[4-(2-tert-butyl-6-isopropyl-pyrimidin-4-yl)-piperazin-1-yl]ethyl]cyclohexyl]-3-methoxy-cyclobutanecarboxamide] registered a Ki in data set [1] below 10 nM. Moreover, in data set [2], the “D2/D3, Ki (D2L)/Ki (D3)” value is given as “+++ (+++ >50)”.
In the same order, the values of `CC(C)c1cc(N2CCN(CCC3CCC(NC(=O)[C@H]4CC[C@H](O)CC4)CC3)C[C@@H]2C)nc(C(C)(C)C)n1` (stereo partly drawn) [Compound 46, Trans-N-[4-[2-[(3S)-4-(2-tert-butyl-6-isopropyl-pyrimidin-4-yl)-3-methyl-piperazin-1-yl]ethyl]cyclohexyl]-4-hydroxy-cyclohexanecarboxamide] are below 10 nM and “+++ (+++ >50)”.
In the case of `COCCc1cc(N2CCN(CC[C@H]3CC[C@H](NC(=O)[C@H]4C[C@@H](O)C4)CC3)CC2)nc(C(C)(C)C)n1` [Compound 18, cis-N-[trans-4-[2-[4-[2-tert-butyl-6-(2-methoxyethyl)pyrimidin-4-yl]piperazin-1-yl]ethyl]cyclohexyl]-3-hydroxy-cyclobutanecarboxamide], in data set [2], the “D2/D3, Ki (D2L)/Ki (D3)” value is listed as “+++ (+++ >50)”. The microsomal CLint at 0.5 μM in data set [3] is 20 to 120 µL/min/mg.
`COCc1cc(N2CCN(CC[C@H]3CC[C@H](NC(=O)[C@H]4CC[C@H](O)CC4)CC3)CC2)nc(C(C)(C)C)n1` [Compound 37, trans-N-[trans-4-[2-[4-[2-tert-butyl-6-(methoxymethyl)pyrimidin-4-yl]piperazin-1-yl]ethyl]cyclohexyl]-4-hydroxy-cyclohexanecarboxamide]: the “D2/D3, Ki (D2L)/Ki (D3)” value in data set [2] is “+++ (+++ >50)”. Moreover, the microsomal CLint at 0.5 μM in data set [3] was in the range of 20 to 120 µL/min/mg.
As for `CC(C)c1cc(N2CCN(CCC3CC[C@H](NC(=O)[C@H]4CC[C@H](O)CC4)C3)C[C@@H]2C)nc(C(C)(C)C)n1` (stereo partly drawn) [Compound 45, Trans-N-[(1S)-3-[2-[(3S)-4-(2-tert-butyl-6-isopropyl-pyrimidin-4-yl)-3-methyl-piperazin-1-yl]ethyl]cyclopentyl]-4-hydroxy-cyclohexanecarboxamide], the Ki in data set [1] is below 10 nM. Moreover, the “D2/D3, Ki (D2L)/Ki (D3)” value in data set [2] is reported as “+++ (+++ >50)”.
In the case of `CC(C)(C)c1nc(C2CCC2)cc(N2CCN(CC[C@H]3CC[C@H](NC(=O)[C@H]4CC[C@@H](O)CC4)CC3)CC2)n1.O=C(O)C(F)(F)F` [Compound 14, Cis-N-[trans-4-[2-[4-(2-tert-butyl-6-cyclobutyl-pyrimidin-4-yl)piperazin-1-yl]ethyl]cyclohexyl]-4-hydroxy-cyclohexanecarboxamide; 2,2,2-trifluoroacetic acid], the “D2/D3, Ki (D2L)/Ki (D3)” value in data set [2] is “++ (++ >20)”. Besides, in data set [3], the microsomal CLint at 0.5 μM was above 120 µL/min/mg.
